{"source": "ChEMBL document CHEMBL1157682", "about": "“In silico prediction of human carboxylesterase-1 (hCES1) metabolism combining docking analyses and MD simulations” (Bioorg Med Chem, 2010)", "note": "Where “and” joins values, the source holds several entries; their conditions need not be identical. Equal entries are not always repeated."}
{"target": "T1, Liver carboxylesterase 1 (Homo sapiens, UniProt P23141)", "T1 sequence (P23141 whole entry)": "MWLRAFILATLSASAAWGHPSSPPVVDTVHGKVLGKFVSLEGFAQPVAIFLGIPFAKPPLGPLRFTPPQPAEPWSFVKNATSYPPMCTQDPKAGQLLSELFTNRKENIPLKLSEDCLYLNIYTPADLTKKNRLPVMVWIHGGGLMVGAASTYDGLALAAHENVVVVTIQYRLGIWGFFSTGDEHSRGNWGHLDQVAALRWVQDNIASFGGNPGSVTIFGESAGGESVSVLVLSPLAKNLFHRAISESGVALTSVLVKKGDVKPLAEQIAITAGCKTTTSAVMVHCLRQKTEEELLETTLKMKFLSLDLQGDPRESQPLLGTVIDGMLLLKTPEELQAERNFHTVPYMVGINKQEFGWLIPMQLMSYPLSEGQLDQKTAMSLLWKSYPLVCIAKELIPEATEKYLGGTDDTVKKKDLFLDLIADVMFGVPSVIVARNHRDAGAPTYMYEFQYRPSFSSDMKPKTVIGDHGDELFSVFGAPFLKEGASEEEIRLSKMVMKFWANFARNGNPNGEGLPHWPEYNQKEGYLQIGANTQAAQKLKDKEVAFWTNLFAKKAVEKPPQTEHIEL", "test": "Activity at human recombinant CES1 expressed in baculovirus-infected Spodoptera frugiperda Sf21 cells assessed as substrate hydrolysis by fluorescence assay"}
{"smiles": "N[C@@H](CC(=O)O)C(=O)OC[C@H]1O[C@@H](n2cc(F)c(=O)[nH]c2=O)C[C@@H]1O", "pKm": 2.52}
{"smiles": "CC1(C)[C@H](C=C(Cl)Cl)[C@@H]1C(=O)OCc1cccc(Oc2ccccc2)c1", "pKm": 4.62}
{"smiles": "CCOC(=O)C1(c2ccccc2)CCN(C)CC1", "note": "[MEPERIDINE]", "pKm": 2.72}
{"smiles": "CCCC(=O)Oc1ccc([N+](=O)[O-])cc1", "pKm": 3.89}
{"smiles": "CC(C)=C[C@H]1[C@H](C(=O)OCc2coc(Cc3ccccc3)c2)C1(C)C", "note": "(relative stereo)", "pKm": 5.17}
{"smiles": "CCOC(=O)[C@H](CCc1ccccc1)N[C@H]1CS[C@H](c2cccs2)CN(CC(=O)O)C1=O", "note": "[TEMOCAPRIL]", "pKm": 3.1}
{"smiles": "COc1ccc2cc([C@@H](C#N)OC(=O)[C@H]3[C@@H](C=C(Cl)Cl)C3(C)C)ccc2c1", "pKm": 5.85}
{"smiles": "CC(=O)Oc1ccc2c(C)cc(=O)oc2c1", "pKm": 3.1}
{"smiles": "CC(=O)O[C@H]1C=C[C@H]2[C@H]3Cc4ccc(O)c5c4[C@@]2(CCN3C)[C@H]1O5", "pKm": 2.08}
{"smiles": "COc1ccc2cc(C(C#N)OC(=O)C3C(C)(C)C3(C)C)ccc2c1", "note": "(centres undefined)", "pKm": 5.82}
{"smiles": "CCOC(=O)[C@H](CCc1ccccc1)N[C@H]1CCCN2CCC[C@@H](C(=O)O)N2C1=O", "note": "[CILAZAPRIL]", "pKm": 2.89}
{"smiles": "CCCCCOC(=O)Nc1nc(=O)n([C@@H]2O[C@H](C)[C@@H](O)[C@H]2O)cc1F", "note": "[CAPECITABINE]", "pKm": 2.89}
{"smiles": "COc1ccc2cc([C@H](C#N)OC(=O)[C@@H]3[C@@H](C=C(Cl)Cl)C3(C)C)ccc2c1", "pKm": 5.77}
{"smiles": "COC(=O)[C@@H](c1ccccc1)[C@@H]1CCCCN1", "pKm": 4.05}
{"smiles": "CC(C)C[C@H](N)C(=O)OC[C@H]1O[C@@H](n2cc(F)c(=O)[nH]c2=O)C[C@@H]1O", "pKm": 3.01}
{"smiles": "COc1ccc(C(=O)N2CCCC2=O)cc1", "pKm": "4.07 and 4.02"}
{"smiles": "CC(=O)Oc1ccc([N+](=O)[O-])cc1", "note": "[4-NITROPHENYL ACETATE]", "pKm": 3.44}
{"smiles": "CCOC(=O)[C@H](CCc1ccccc1)N[C@@H](C)C(=O)N(CC(=O)O)C1Cc2ccccc2C1", "pKm": 2.82}
{"smiles": "CCc1c2c(nc3ccc(OC(=O)N4CCC(N5CCCCC5)CC4)cc13)-c1cc3c(c(=O)n1C2)COC(=O)[C@]3(O)CC", "note": "[IRINOTECAN]", "pKm": 2.84}
{"smiles": "CCOC(=O)[C@H](CCc1ccccc1)N[C@@H](C)C(=O)N1C(=O)N(C)C[C@H]1C(=O)O", "pKm": 3.54}
{"smiles": "CC1(C)[C@H](C=C(Cl)Cl)[C@H]1C(=O)OCc1cccc(Oc2ccccc2)c1", "note": "(stereo in doubt)", "pKm": 5.01}
{"smiles": "COC(=O)[C@H](c1ccccc1)[C@H]1CCCCN1", "note": "[DEXMETHYLPHENIDATE]", "pKm": 4.36}
{"smiles": "CC1(C)[C@@H](C=C(Cl)Cl)[C@@H]1C(=O)OCc1cccc(Oc2ccccc2)c1", "note": "(stereo in doubt)", "pKm": 5.01}
{"smiles": "COC(=O)[C@H](c1ccccc1Cl)N1CCc2sccc2C1", "note": "[CLOPIDOGREL]", "pKm": 4.25}
{"smiles": "COC(=O)[C@H]1[C@@H](OC(=O)c2ccccc2)C[C@@H]2CC[C@H]1N2C", "note": "[COCAINE]", "pKm": 3.92}
{"smiles": "CC(C)[C@H](N)C(=O)OC[C@H]1O[C@@H](n2cc(F)c(=O)[nH]c2=O)C[C@@H]1O", "pKm": 2.45}
{"smiles": "CC1(C)[C@H](C(=O)OCc2cccc(Oc3ccccc3)c2)[C@@H]1C=C(Cl)Cl", "pKm": 4.62}
{"smiles": "CCOC(=O)[C@H](CCc1ccccc1)N[C@@H](C)C(=O)N1Cc2ccccc2C[C@H]1C(=O)O", "pKm": 3.87}
{"smiles": "COc1ccc2cc([C@@H](C#N)OC(=O)[C@@H]3[C@@H](C=C(Cl)Cl)C3(C)C)ccc2c1", "pKm": 6.15}
{"smiles": "COc1ccc2cc([C@H](C#N)OC(=O)[C@H]3[C@H](C=C(Cl)Cl)C3(C)C)ccc2c1", "pKm": 5.72}
{"smiles": "COc1ccc2cc([C@@H](C#N)OC(=O)[C@H]3[C@H](C=C(Cl)Cl)C3(C)C)ccc2c1", "pKm": 5.62}
{"smiles": "CCOC(=O)C1=C[C@@H](OC(CC)CC)[C@H](NC(C)=O)[C@@H](N)C1", "note": "[OSELTAMIVIR]", "pKm": 3.75}
{"smiles": "COc1ccc2cc([C@H](C#N)OC(=O)[C@H]3[C@@H](C=C(Cl)Cl)C3(C)C)ccc2c1", "pKm": 5.82}
{"smiles": "COc1ccc2cc([C@H](C#N)OC(=O)[C@@H]3[C@H](C=C(Cl)Cl)C3(C)C)ccc2c1", "pKm": 6.52}
{"smiles": "N[C@@H](Cc1ccccc1)C(=O)OC[C@H]1O[C@@H](n2cc(F)c(=O)[nH]c2=O)C[C@@H]1O", "pKm": 3.34}
{"smiles": "CC(=O)Oc1ccc2c3c1O[C@H]1[C@@H](OC(C)=O)C=C[C@H]4[C@@H](C2)N(C)CC[C@@]341", "note": "[DIACETYLMORPHINE]", "pKm": 2.2}
{"smiles": "CCOC(=O)[C@H](CCc1ccccc1)N[C@H]1CCc2ccccc2N(CC(=O)O)C1=O", "note": "[BENAZEPRIL]", "pKm": 3.13}
{"smiles": "CN(C)C(=O)COC(=O)Cc1ccc(OC(=O)c2ccc(NC(=N)N)cc2)cc1", "note": "[CAMOSTAT]", "pKm": 3.15}
{"smiles": "COc1cc(C(=O)OCCCN2CCCN(CCCOC(=O)c3cc(OC)c(OC)c(OC)c3)CC2)cc(OC)c1OC", "note": "[DILAZEP]", "pKm": 3.81}
